# From patent US8288371B2, “Ortho pyrrolidine, benzyl-substituted heterocycle CCR1 antagonists for autoimmune diseases and inflammation” (Pharmacopeia, LLC, priority 2007, dated 2012)
# Target: T1, human CCR1 (Homo sapiens, UniProt P32246)
# T1 sequence (P32246 1-355): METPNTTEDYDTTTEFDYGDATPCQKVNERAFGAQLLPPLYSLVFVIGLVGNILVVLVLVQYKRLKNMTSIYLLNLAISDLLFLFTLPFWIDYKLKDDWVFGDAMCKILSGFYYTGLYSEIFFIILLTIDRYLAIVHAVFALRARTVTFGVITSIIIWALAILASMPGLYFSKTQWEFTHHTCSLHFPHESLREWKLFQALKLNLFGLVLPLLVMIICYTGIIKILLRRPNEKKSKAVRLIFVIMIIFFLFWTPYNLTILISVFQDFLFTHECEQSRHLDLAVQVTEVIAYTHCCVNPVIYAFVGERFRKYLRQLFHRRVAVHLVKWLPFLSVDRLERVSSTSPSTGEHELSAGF
# Assay: CCR1 binding protocol (SPA, [125I]-MIP-1α displacement)
# Conditions: cell membrane expressing human CCR1, 0.1 nM [125I]-MIP-1α, 4 hours at ambient temperature; read-out: Relative potency (IC50)
# How it was run: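 Human CCR1 membranes (0.5 μg/well) on SPA beads were incubated with compound and 0.1 nM [125I]-MIP-1α (final) for 4 h at ambient temperature. Buffer was Tris pH 7.4 with NaCl, KCl, MnCl and 0.1% BSA. IC50 came from ½-log compound dilutions (10 mM top DMSO stock) by displacement of bound radioligand.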
row,SMILES,IC50
1,Cc1ncccc1NC(=O)N1CCC[C@@H]1c1nnc(C)n1Cc1ccc(Cl)cc1 [Compound 223],50 to 500 nM
2,Cc1nnc([C@H]2CCCN2C(=O)NCc2ccccc2)n1Cc1ccc(Cl)cc1 [Compound 224],50 to 500 nM
3,Cc1ccncc1NC(=O)N1CCC[C@@H]1c1nnc(C)n1Cc1ccc(Cl)cc1 [Compound 225],50 to 500 nM
4,Cc1noc(-c2ccccc2)c1NC(=O)N1CCC[C@@H]1c1nnc(C(F)(F)F)n1Cc1ccc(Cl)cc1 [Compound 226],50 to 500 nM
5,Cc1nnc([C@H]2CCCN2C(=O)N[C@@H](C)c2ccccc2)n1Cc1ccc(Cl)cc1 [Compound 227],50 to 500 nM
6,Cc1nnc([C@H]2CCCN2C(=O)NCc2ccc(F)cc2)n1Cc1ccc(Cl)cc1 [Compound 228],50 to 500 nM
7,Cc1ccc(C(N)=O)cc1NC(=O)N1CCC[C@@H]1c1nnc(C)n1Cc1ccc(Cl)cc1 [Compound 229],50 to 500 nM
8,CNC(=O)c1cccc(NC(=O)N2CCC[C@@H]2c2nnc(C)n2Cc2ccc(Cl)cc2)c1C [Compound 231],50 to 500 nM
9,CC(=O)N1CCC[C@H](NC(=O)N2CCC[C@@H]2c2nnc(C)n2Cc2ccc(Cl)cc2)C1 [Compound 232],50 to 500 nM
10,Cc1cccc(C(=O)N(C)C)c1NC(=O)N1CCC[C@@H]1c1nnc(C)n1Cc1ccc(Cl)cc1 [Compound 233],50 to 500 nM
11,CNC(=O)c1ccc(NC(=O)N2CCC[C@@H]2c2nnc(C)n2Cc2ccc(Cl)cc2)c(C)c1 [Compound 234],50 to 500 nM
12,O=C(N[C@H]1CCOc2cc(C(F)(F)F)ccc21)N1CCC[C@@H]1c1nnc(C(F)(F)F)n1Cc1ccc(Cl)cc1 [Compound 235],50 to 500 nM
13,Cc1cc(C(=O)N(C)C)ccc1NC(=O)N1CCC[C@@H]1c1nnc(C)n1Cc1ccc(Cl)cc1 [Compound 236],50 to 500 nM
14,Cc1nnc([C@H]2CCCN2C(=O)Nc2ccncc2)n1Cc1ccc(Cl)cc1 [Compound 237],50 to 500 nM
15,Cc1c(NC(=O)N2CCC[C@@H]2c2nnc(C)n2Cc2ccc(Cl)cc2)cccc1C(=O)N(C)C [Compound 238],50 to 500 nM
16,Cc1cc(C)c(NC(=O)N2CCC[C@@H]2c2nnc(C)n2Cc2ccc(Cl)cc2)c(C(=O)N(C)C)c1 [Compound 239],50 to 500 nM
17,Cc1cc(C(=O)O)ccc1NC(=O)N1CCC[C@@H]1c1nnc(C)n1Cc1ccc(Cl)cc1 [Compound 240],50 to 500 nM
18,Cc1ccc(C(=O)O)cc1NC(=O)N1CCC[C@@H]1c1nnc(C)n1Cc1ccc(Cl)cc1 [Compound 241],50 to 500 nM
19,Cc1c(NC(=O)N2CCC[C@@H]2c2nnc(C)n2Cc2ccc(Cl)cc2)cccc1C(=O)O [Compound 242],50 to 500 nM
20,Cc1nnc([C@H]2CCCN2C(=O)Nc2ccc(Cl)cn2)n1Cc1ccc(Cl)cc1 [Compound 243],50 to 500 nM
21,Cc1ccc(NC(=O)N2CCC[C@@H]2c2nnc(C)n2Cc2ccc(Cl)cc2)c(C(N)=O)c1 [Compound 244],50 to 500 nM
22,Cc1nnc([C@H]2CCCN2C(=O)Nc2cccnc2)n1Cc1ccc(Cl)cc1 [Compound 245],500 to 5000 nM
23,Cc1nnc([C@H]2CCCN2C(=O)NC2CCCC2)n1Cc1ccc(Cl)cc1 [Compound 246],500 to 5000 nM

row,SMILES,IC50
1,Cc1c(NC(=O)N2CCC[C@@H]2c2nnc(C)n2Cc2ccc(Cl)cc2)cccc1C(N)=O [Compound 247],500 to 5000 nM
2,COC(=O)c1cc(C)ccc1NC(=O)N1CCC[C@@H]1c1nnc(C)n1Cc1ccc(Cl)cc1 [Compound 248],500 to 5000 nM
3,O=C(NCc1ccc(C(F)(F)F)cc1)N1CCC[C@@H]1c1nnc(C(F)(F)F)n1Cc1ccc(Cl)cc1 [Compound 249],500 to 5000 nM
4,Cc1nnc([C@H]2CCCN2C(=O)Nc2cncnc2)n1Cc1ccc(Cl)cc1 [Compound 250],500 to 5000 nM
5,Cc1cccc(C(=O)O)c1NC(=O)N1CCC[C@@H]1c1nnc(C)n1Cc1ccc(Cl)cc1 [Compound 251],500 to 5000 nM
6,Cc1nnc([C@H]2CCCN2C(=O)NC(C)C)n1Cc1ccc(Cl)cc1 [Compound 252],500 to 5000 nM
7,Cc1nnc([C@H]2CCCN2C(=O)Nc2ccccn2)n1Cc1ccc(Cl)cc1 [Compound 253],500 to 5000 nM
8,Cc1cc(C)c(NC(=O)N2CCC[C@@H]2c2nnc(C)n2Cc2ccc(Cl)cc2)c(C(=O)O)c1 [Compound 254],500 to 5000 nM
9,CSc1nc(Cl)cc(NC(=O)N2CCC[C@@H]2c2nnc(C)n2Cc2ccc(Cl)cc2)n1 [Compound 255],500 to 5000 nM
10,Cc1cc(NC(=O)N2CCC[C@@H]2c2nnc(C)n2Cc2ccc(Cl)cc2)nc(C)n1 [Compound 256],500 to 5000 nM
11,Cc1nnc([C@H]2CCCN2C(=C[N+](=O)[O-])Nc2ccc(C(F)(F)F)cc2)n1Cc1ccc(Cl)cc1 [Compound 257],500 to 5000 nM
12,Cc1nnc([C@H]2CCCN2C(=O)Nc2ccncn2)n1Cc1ccc(Cl)cc1 [Compound 258],500 to 5000 nM
13,Cc1noc(C)c1NC(=O)N1CCC[C@@H]1c1nnc(Cl)n1Cc1ccc(Cl)cc1 [Compound 259],< 50 nM
14,Cc1nnc([C@H]2CCCN2/C(=N\C#N)N[C@H]2CCOc3cc(C(F)(F)F)ccc32)n1Cc1ccc(Cl)cc1 [Compound 260],50 to 500 nM
15,Cc1nnc([C@H]2CCCN2C(=O)N[C@H]2CCCOc3ccccc32)n1Cc1ccc(Cl)cc1 [Compound 261],50 to 500 nM
16,Cc1nnc([C@H]2CCCN2C(=O)N[C@@H]2CC(C)(C)Oc3cc(C(F)(F)F)ccc32)n1Cc1ccc(Cl)cc1 [Compound 262],500 to 5000 nM
17,Cc1nnc([C@H]2CCCN2C(=O)NC2(c3ccc(C(F)(F)F)cc3)CC2)n1Cc1ccc(Cl)cc1 [Compound 263],< 50 nM
18,Cc1nnc([C@H]2CCCN2C(=O)NC2(c3ccccc3C(F)(F)F)CC2)n1Cc1ccc(Cl)cc1 [Compound 264],500 to 5000 nM
19,Cc1nnc([C@H]2CCCN2C(=O)NC2(c3cccc(C(F)(F)F)c3)CC2)n1Cc1ccc(Cl)cc1 [Compound 265],< 50 nM
20,Cc1nnc([C@H]2CCCN2C(=O)NC2(c3cccc(F)c3)CC2)n1Cc1ccc(Cl)cc1 [Compound 266],< 50 nM
21,Cc1nnc([C@H]2CCCN2C(=O)NC2CCCc3cccc(Cl)c32)n1Cc1ccc(Cl)cc1 (stereo partly drawn) [Compound 267],50 to 500 nM
22,Cc1nnc([C@H]2CCCN2C(=O)N[C@H]2CC(C)(C)Oc3cc(C(F)(F)F)ccc32)n1Cc1ccc(Cl)cc1 [Compound 268],< 50 nM
23,Cc1ccc2c(c1)CCCC2NC(=O)N1CCC[C@@H]1c1nnc(C)n1Cc1ccc(Cl)cc1 (stereo partly drawn) [Compound 269],50 to 500 nM

row,SMILES,IC50
1,Cc1nnc([C@H]2CCCN2C(=O)NC2(c3ccc(F)cc3)CC2)n1Cc1ccc(Cl)cc1 [Compound 270],< 50 nM
2,Cc1nnc([C@H]2CCCN2C(=O)NC2(c3ccc(Cl)cc3)CC2)n1Cc1ccc(Cl)cc1 [Compound 271],< 50 nM
3,Cc1nnc([C@H]2CCCN2C(=O)NC2CC(C)(C)Oc3cc(C(F)(F)F)ccc32)n1Cc1ccc(Cl)cc1 (stereo partly drawn) [Compound 272],50 to 500 nM
4,Cc1nnc([C@H]2CCCN2C(=O)NC2(c3ccccc3F)CC2)n1Cc1ccc(Cl)cc1 [Compound 273],< 50 nM
5,Cc1nnc([C@H]2CCCN2C(=O)Nc2ccc3c(c2)CC(C)O3)n1Cc1ccc(Cl)cc1 (stereo partly drawn) [Compound 274],50 to 500 nM
6,Cc1nnc([C@H]2CCCN2C(=O)NC(C)(C)c2ccc(F)cc2)n1Cc1ccc(Cl)cc1 [Compound 275],< 50 nM
7,Cc1onc(-c2ccccc2Cl)c1NC(=O)N1CCC[C@@H]1c1nnc(C)n1Cc1ccc(Cl)cc1 [Compound 276],< 50 nM
8,Cc1nnc([C@H]2CCCN2C(=O)Nc2ccc(C(F)(F)F)cn2)n1Cc1ccc(Cl)cc1 [Compound 277],50 to 500 nM
9,Cc1nnc([C@H]2CCCN2C(=O)Nc2ccc(C(C)C)cc2C(F)(F)F)n1Cc1ccc(Cl)cc1 [Compound 278],< 50 nM
10,CNC(=O)c1cc(C)ccc1NC(=O)N1CCC[C@@H]1c1nnc(C)n1Cc1ccc(Cl)cc1 [Compound 279],50 to 500 nM
11,CC[C@H](NC(=O)N1CCC[C@@H]1c1nnc(C)n1Cc1ccc(Cl)cc1)c1cc2cc(C(F)(F)F)ccc2o1 [Compound 280],< 50 nM
12,Cc1cccnc1NC(=O)N1CCC[C@@H]1c1nnc(C)n1Cc1ccc(Cl)cc1 [Compound 281],< 50 nM
13,Cc1nnc([C@H]2CCCN2C(=O)Nc2cc(C(=O)O)ccc2F)n1Cc1ccc(Cl)cc1 [Compound 282],500 to 5000 nM
14,CC(=O)N1CCC[C@@H](NC(=O)N2CCC[C@@H]2c2nnc(C)n2Cc2ccc(Cl)cc2)C1 [Compound 283],50 to 500 nM
15,COC(=O)c1ccc(F)c(NC(=O)N2CCC[C@@H]2c2nnc(C)n2Cc2ccc(Cl)cc2)c1 [Compound 284],< 50 nM
16,CC[C@@H](NC(=O)N1CCC[C@@H]1c1nnc(C)n1Cc1ccc(Cl)cc1)c1ccccc1 [Compound 285],< 50 nM
17,COC(=O)c1ccc(Cl)c(NC(=O)N2CCC[C@@H]2c2nnc(C)n2Cc2ccc(Cl)cc2)c1 [Compound 286],< 50 nM
18,CCc1noc(CC)c1NC(=O)N1CCC[C@@H]1c1nnc(C)n1Cc1ccc(Cl)cc1 [Compound 287],< 50 nM
19,Cc1cccc(-c2noc(C)c2NC(=O)N2CCC[C@@H]2c2nnc(C)n2Cc2ccc(Cl)cc2)c1 [Compound 288],< 50 nM
20,CCc1noc(C)c1NC(=O)N1CCC[C@@H]1c1nnc(C)n1Cc1ccc(Cl)cc1 [Compound 290],< 50 nM
21,Cc1onc(-c2ccccc2F)c1NC(=O)N1CCC[C@@H]1c1nnc(C)n1Cc1ccc(Cl)cc1 [Compound 291],< 50 nM
22,COC1CCC(NC(=O)N2CCC[C@@H]2c2nnc(C)n2Cc2ccc(Cl)cc2)CC1 (stereo partly drawn) [Compound 292],50 to 500 nM
23,Cc1onc(-c2ccc(Cl)cc2)c1NC(=O)N1CCC[C@@H]1c1nnc(C)n1Cc1ccc(Cl)cc1 [Compound 293],< 50 nM
